The target in assay [1] is T1, human COX-2 (Homo sapiens, UniProt P35354).
T1 construct: expressed in transfected cells; host or cells: COS cells (stably transfected)
T1 sequence (P35354 18-604): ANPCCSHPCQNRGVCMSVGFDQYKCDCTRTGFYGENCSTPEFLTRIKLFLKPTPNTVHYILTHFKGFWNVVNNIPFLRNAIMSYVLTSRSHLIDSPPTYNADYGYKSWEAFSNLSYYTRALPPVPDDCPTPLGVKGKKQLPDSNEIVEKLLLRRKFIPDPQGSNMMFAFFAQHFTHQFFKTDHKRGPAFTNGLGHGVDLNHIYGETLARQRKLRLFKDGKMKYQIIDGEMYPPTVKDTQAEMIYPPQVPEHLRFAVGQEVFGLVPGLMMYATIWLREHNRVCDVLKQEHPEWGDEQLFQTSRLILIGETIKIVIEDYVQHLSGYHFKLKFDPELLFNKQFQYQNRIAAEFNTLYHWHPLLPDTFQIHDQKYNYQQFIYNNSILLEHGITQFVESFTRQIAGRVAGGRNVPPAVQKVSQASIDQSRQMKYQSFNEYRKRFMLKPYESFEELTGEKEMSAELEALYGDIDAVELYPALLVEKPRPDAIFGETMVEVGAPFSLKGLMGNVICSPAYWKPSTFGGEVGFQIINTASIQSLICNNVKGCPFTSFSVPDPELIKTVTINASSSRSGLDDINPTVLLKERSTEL
Nature of the assay: Inhibition of PGE2 release in COS cells stably transfected with human COX-2. Type of assay: cell-based. The following applies: COS cells transfected with human COX-2, 30 μM arachidonic acid.

In assay [2] the target is T2, human COX-1 (Homo sapiens, UniProt P23219).
T2 construct: expressed in transfected cells; host or cells: COS cells (stably transfected)
Nature of the assay: Inhibition of PGE2 release in COS cells stably transfected with human COX-1. Type of assay: cell-based. The following applies: COS cells transfected with human COX-1, 30 μM arachidonic acid.
Description: 24 Hours prior to experiment, COS cells were transferred from the 175 cm^2 flasks in which they were grown, onto 24-well cell culture plates using the following procedure. The incubation medium (Dulbecco's modified eagles medium (DMEM) supplemented with heat-inactivated foetal calf serum (10% v/v), penicillin (100 IU/ml), streptomycin (100 μg/ml) and genebcin (600 μg/ml)) was removed from a flask of confluent cells (1 flask at confluency contains approximately lx107 cells). 10 mI of phosphate buffered saline (PBS) was added to the flask to wash the cells. Having discarded the PBS, cells were then rinsed in 10 ml trypsin for 20 seconds, after which the trypsin was removed and the flask placed in an incubator (37°) for 1-2 minutes unbil cells became detached from the flask. The flask was then removed from the incubator and cells resuspended in 10 ml of fresh incubation medium. The contents of the flask was transferred to a 250 ml sterile container and the volume of incubation medium subsequently made up to 100 ml. […] If more than 1 flask of cells were required, the cells from the individual flasks were combined before being dispensed into the 24-well plates.
Following the overnight incubation, the incubation medium was completely removed from the 24-well cell culture plates and replaced with 250 μl fresh DMEM (37° C.). The test compounds were made up to 250× the required test concentration in DMSO and were added to the wells in a volume of 1 μl. […] Plates were then incubated for a further 15 minutes, after which the incubation medium was removed from each well of the plates and stored at −20° C., prior to determination of prostaglandin E2 (PGE2) levels using enzyme immunoassay. […] The selectivity ratio of inhibition of COX-1 versus COX-2 was calculated by comparing respective IC50 values.

For assay [3], the target named is T3, microsomal h-COX2 (Homo sapiens, UniProt P35354).
T3 construct: made in house; host or cells: baculovirus infected SF9 cells (microsomal preparation)
T3 sequence (P35354 18-604): T1 sequence (P35354 18-604)
Description: Microsomal assay, h-COX2 preparation from baculovirus infected SF9 cells. Type of assay: biochemical. The conditions noted are these: stated in text under the microsomal assay; read-out: IC50 values for inhibition of COX-2.
Description: Inhibitory activity against microsomal h-COX2 was assessed against a microsomal preparation from baculovirus infected SF9 cells. An aliquot of microsomal preparation was thawed slowly on ice and a 1/40,000 dilution prepared from it into the assay buffer (sterile water, degassed with argon containing 100 mM HEPES (pH 7.4), 10 mM EDTA (pH7.4), 1 mM phenol, 1 mM reduced glutathione, 20 mg/ml gelatin and 0.001 mM Hematin). Once diluted the enzyme solution was then sonicated for 5 seconds (Branson sonicator, setting 4, 1 cm tip) to ensure a homogeneous suspension. […] Plates were then mixed and incubated at room temperature for 1 hour. Following the incubation period, 40 μl of 0.5 μM arachidonic acid was added to each well to give a final concentration of 0.1 μM. Plates were then mixed and incubated for exactly 10 minutes (room temperature) prior to addition of 25 μl 1M HCl (hydrochloric acid) to each well to stop the reaction. 25 μl of 1M NaOH (sodium hydroxide) was then added to each well to neutralise the solution prior to determination of PGE2 levels by enzyme immunoassay (EIA).

Molecules are shown by their SMILES.

T2 sequence (P23219 24-599): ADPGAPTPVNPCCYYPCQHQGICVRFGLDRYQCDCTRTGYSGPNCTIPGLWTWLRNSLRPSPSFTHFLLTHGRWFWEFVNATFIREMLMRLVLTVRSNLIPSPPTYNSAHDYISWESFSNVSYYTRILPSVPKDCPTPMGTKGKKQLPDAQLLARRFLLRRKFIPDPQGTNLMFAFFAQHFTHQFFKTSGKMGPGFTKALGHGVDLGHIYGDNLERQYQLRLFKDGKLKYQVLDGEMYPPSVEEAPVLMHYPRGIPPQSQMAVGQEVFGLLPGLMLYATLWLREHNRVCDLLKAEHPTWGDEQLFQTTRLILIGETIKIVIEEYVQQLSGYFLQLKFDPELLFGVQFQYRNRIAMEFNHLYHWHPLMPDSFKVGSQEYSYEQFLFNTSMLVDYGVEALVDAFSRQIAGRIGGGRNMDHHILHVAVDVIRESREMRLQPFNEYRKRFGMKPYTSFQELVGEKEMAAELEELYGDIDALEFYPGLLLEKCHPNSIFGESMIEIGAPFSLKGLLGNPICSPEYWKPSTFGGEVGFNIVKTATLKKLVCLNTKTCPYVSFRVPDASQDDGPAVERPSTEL

The IC50 is the concentration that gives 50% inhibition. In the case of `CS(=O)(=O)c1ccc(-c2cc(C(F)(F)F)nc(Oc3ccc(F)cc3)n2)cc1` [Example 1.1, 2-(4-Fluorophenoxy)-4-[4-(methylsulfonyl)phenyl]-6-(tiifluoromethyl)pyrimidine], the results for the IC50 in assay [1] and in assay [2] were under 0.001 µM and 81.3 µM, respectively.
For `CCOc1ccc(-c2nn3ncccc3c2-c2ccc(S(N)(=O)=O)cc2)cc1` [2.6(iv), 4-[2-(4-Ethoxy-phenyl)-pyrazolo[1,5-b]pyridazin-3-yl]-benzenesulfonamide], in that order: 0.00044 µM and 3.83 µM.
Molecule `CCOc1ccc(-c2nn3ncccc3c2-c2ccc(S(C)(=O)=O)cc2)cc1` [2.3(ii), 2-(4-Ethoxy-phenyl)-3-(4-methanesulfonyl-phenyl)-pyrazolo[1,5-b]pyridazine] showed an IC50 in assay [1] of 0.003 µM.
Same read-out and setting: under `CS(=O)(=O)c1ccc(-c2c(-c3ccc(F)cc3)nn3nc(S(C)(=O)=O)ccc23)cc1` [2.4(iii), 2-(4-Fluoro-phenyl)-6-methanesulfonyl-3-(4-methanesulfonyl-phenyl)-pyrazolo[1,5-b]pyridazine] stands 0.37 µM.
On to `COc1ccc(Oc2nc(-c3ccc(S(C)(=O)=O)cc3)cc(C(F)(F)F)n2)cc1` [Example 1.3], for which the figures for the IC50 in assay [1] and in assay [2] were 0.004 µM and 2.92 µM, respectively.
In assay [2], `COc1ccc(-c2nn3ncccc3c2-c2ccc(S(C)(=O)=O)cc2)cc1` [2.2(ii), 3-(4-Methanesulfonyl-phenyl)-2-(4-methoxy-phenyl)-pyrazolo[1,5-b]pyridazine] had a concentration for half-maximal inhibition (IC50) of 3.88 µM.
As for `Cc1cc(NCc2cnn(C)c2)nc(-c2ccc(S(C)(=O)=O)cc2)c1` [Example 3.3, 4-methyl-N-[(1-methyl-1H-pyrazol-4-yl)methyl]-6-[4-(methylsulfonyl)phenyl]-2-pyridinamine], the IC50 in assay [3] is at most 0.5 µM.
On the same count and under the same terms, under `CS(=O)(=O)c1ccc(-c2cc(C(F)(F)F)cc(NC3CCCCC3)n2)cc1` [Example 3.1, N-cyclohexyl-4-(trifluoromethyl)-6-[4-(methylsulfonyl)phenyl]pyridine-2-amine] stands at most 0.5 µM.

These data come from US20070142411A1, “Use of cyclooxygenase-2 selective inhibitors for the treatment of schizophrenic disorders” (priority 2003, published 2007).
